From the NIST ThermoML archive (doi:10.1021/acs.jced.5b00627)
± gives the expanded uncertainty stated by the source.

What was measured:
[1] = mn = molality of the nth substance listed, in mol/kg; details: 100 kPa, Liquid; for viscosity: Capillary tube (Ostwald / Ubbelohde) method; for speed of sound: Frequency=3 MHz, Sing-around technique in a fixed-path interferometer; for mass density: Vibrating tube method
[2] = for Normal melting temperature: Crystal, DTA; for viscosity: 100 kPa, Capillary tube (Ostwald / Ubbelohde) method; for viscosity / speed of sound / mass density: Liquid; for speed of sound / mass density: 101.33 kPa; for speed of sound: Sing-around technique in a fixed-path interferometer; for mass density: Vibrating tube method

COc1cc(-c2cc(-c3ccccc3O)[nH]c(=O)c2C#N)ccc1O + C[S+](C)[O-]
[1]
Details | mass density, 298.15 K [kg/m3] | mass density, 308.15 K [kg/m3] | mass density, 318.15 K [kg/m3] | speed of sound, 298.15 K [m/s] | speed of sound, 308.15 K [m/s] | speed of sound, 318.15 K [m/s] | viscosity, 298.15 K [mPa·s] | viscosity, 308.15 K [mPa·s] | viscosity, 318.15 K [mPa·s]
m1 = 0.01 | 1096.09 ± 1 | 1086.41 ± 1 | 1076.4 ± 1 | 1486 ± 1.3 | 1452.1 ± 1.3 | 1418.6 ± 1.3 | 1.88 ± 0.34 | 1.535 ± 0.28 | 1.247 ± 0.23
m1 = 0.02 | 1097.16 ± 1 | 1087.16 ± 1 | 1077.18 ± 1 | 1487 ± 1.3 | 1453.1 ± 1.3 | 1419.5 ± 1.3 | 1.958 ± 0.35 | 1.57 ± 0.28 | 1.287 ± 0.23
m1 = 0.04 | 1098.32 ± 1 | 1088.47 ± 1 | 1078.47 ± 1 | 1488.6 ± 1.3 | 1454.2 ± 1.3 | 1420.8 ± 1.3 | 2.037 ± 0.37 | 1.608 ± 0.29 | 1.327 ± 0.24
m1 = 0.06 | 1099.5 ± 1 | 1089.66 ± 1 | 1079.56 ± 1 | 1490.2 ± 1.3 | 1455.2 ± 1.3 | 1422 ± 1.3 | 2.124 ± 0.38 | 1.645 ± 0.3 | 1.359 ± 0.25
m1 = 0.08 | 1100.68 ± 1 | 1090.65 ± 1 | 1080.71 ± 1 | 1491.7 ± 1.3 | 1456.3 ± 1.3 | 1423 ± 1.3 | 2.201 ± 0.4 | 1.685 ± 0.31 | 1.399 ± 0.25
m1 = 0.1 | 1101.83 ± 1 | 1091.96 ± 1 | 1081.9 ± 1 | 1493.5 ± 1.3 | 1457 ± 1.3 | 1424.3 ± 1.3 | 2.301 ± 0.42 | 1.716 ± 0.31 | 1.458 ± 0.26

C[S+](C)[O-] [dimethyl sulfoxide] + COc1cc(-c2cc(-c3ccc(Cl)cc3)[nH]c(=O)c2C#N)ccc1O
[1], m2 = 0
Details | mass density [kg/m3] | speed of sound [m/s] | viscosity [mPa·s]
298.15 K | 1095.28 ± 1 | 1484.8 ± 1.3 | 1.814 ± 0.33
308.15 K | 1085.23 ± 1 | 1450.9 ± 1.3 | 1.472 ± 0.27
318.15 K | 1075.19 ± 1 | 1417.4 ± 1.3 | 1.176 ± 0.21

COc1cc(-c2cc(-c3ccc(O)cc3)[nH]c(=O)c2C#N)ccc1O + C[S+](C)[O-]
[1]
Details | mass density, 298.15 K [kg/m3] | mass density, 308.15 K [kg/m3] | mass density, 318.15 K [kg/m3] | speed of sound, 298.15 K [m/s] | speed of sound, 308.15 K [m/s] | speed of sound, 318.15 K [m/s] | viscosity, 298.15 K [mPa·s] | viscosity, 308.15 K [mPa·s] | viscosity, 318.15 K [mPa·s]
m1 = 0.01 | 1096.12 ± 1 | 1086.44 ± 1 | 1076.45 ± 1 | 1486.3 ± 1.3 | 1452.4 ± 1.3 | 1419 ± 1.3 | 1.885 ± 0.34 | 1.544 ± 0.28 | 1.265 ± 0.23
m1 = 0.02 | 1097.17 ± 1 | 1087.19 ± 1 | 1077.22 ± 1 | 1487.3 ± 1.3 | 1453.2 ± 1.3 | 1420.1 ± 1.3 | 1.963 ± 0.35 | 1.576 ± 0.29 | 1.312 ± 0.24
m1 = 0.04 | 1098.34 ± 1 | 1088.48 ± 1 | 1078.49 ± 1 | 1488.9 ± 1.3 | 1454.5 ± 1.3 | 1421.5 ± 1.3 | 2.06 ± 0.37 | 1.623 ± 0.29 | 1.364 ± 0.25
m1 = 0.06 | 1099.52 ± 1 | 1089.69 ± 1 | 1079.59 ± 1 | 1490.6 ± 1.3 | 1455.6 ± 1.3 | 1422.7 ± 1.3 | 2.144 ± 0.39 | 1.663 ± 0.3 | 1.392 ± 0.25
m1 = 0.08 | 1100.69 ± 1 | 1090.67 ± 1 | 1080.74 ± 1 | 1492 ± 1.3 | 1456.5 ± 1.3 | 1424 ± 1.3 | 2.243 ± 0.41 | 1.704 ± 0.31 | 1.421 ± 0.26
m1 = 0.1 | 1101.86 ± 1 | 1091.98 ± 1 | 1081.94 ± 1 | 1493.7 ± 1.3 | 1457.4 ± 1.3 | 1425.1 ± 1.3 | 2.323 ± 0.42 | 1.729 ± 0.31 | 1.462 ± 0.27

C[S+](C)[O-] [dimethyl sulfoxide] + COc1cc(-c2cc(-c3ccccc3)[nH]c(=O)c2C#N)ccc1O
[1], m2 = 0
Details | mass density [kg/m3] | speed of sound [m/s] | viscosity [mPa·s]
298.15 K | 1095.28 ± 1 | 1484.8 ± 1.3 | 1.814 ± 0.33
308.15 K | 1085.23 ± 1 | 1450.9 ± 1.3 | 1.472 ± 0.27
318.15 K | 1075.19 ± 1 | 1417.4 ± 1.3 | 1.176 ± 0.21

COc1cc(-c2cc(-c3ccc(O)cc3)[nH]c(=O)c2C#N)ccc1O
Details | Normal melting temperature [°C]
[2] | 326.33 ± 1.8

COc1cc(-c2cc(-c3ccccc3)[nH]c(=O)c2C#N)ccc1O
Details | Normal melting temperature [°C]
[2] | 343.12 ± 1.8

COc1cc(-c2cc(-c3ccccc3O)[nH]c(=O)c2C#N)ccc1O
Details | Normal melting temperature [°C]
[2] | 234.49 ± 1.8

C[S+](C)[O-] [dimethyl sulfoxide]
[2]
Details | mass density [kg/m3] | speed of sound [m/s] | viscosity [mPa·s]
298.15 K | 1095.28 ± 1 | 1484.8 ± 1.3 | 1.814 ± 0.33
308.15 K | 1085.23 ± 1 | 1450.9 ± 1.3 | 1.472 ± 0.27
318.15 K | 1075.19 ± 1 | 1417.4 ± 1.3 | 1.176 ± 0.21
